# From BindingDB's records for patent US117730 (Glaxosmithkline Intellectual Property Development, 2023)
# Target: T1, Furin [108-574] (Homo sapiens, UniProt P09958)
# T1 construct: 108-574
# Experiment: Furin Enzyme Assay
# Procedure: Reactions were performed in black 384-well polystyrene low volume plates (Greiner). […] Compounds of the invention were dissolved in DMSO (1.0 mM) and serially diluted 1 to 3 with DMSO through eleven dilutions to provide a final compound concentration range from 0.00017 to 10 μM. 0.05 μL of each concentration was transferred to the corresponding well of an assay plate, and then 5 μL of 40 pM furin enzyme in assay buffer (100 mM HEPES pH7.5, 1 mM CaCl2 and 0.005% Triton X-100) was added using a Multidrop Combi (Thermo) to the compound plates, and mixed by inversion. […] The plates were centrifuged at 500×g for 1 minute and incubated at room temperature for two hours. Enzyme inhibition is then quantified using an Envision instrument (PerkinElmer).
# T1 sequence (P09958 108-574): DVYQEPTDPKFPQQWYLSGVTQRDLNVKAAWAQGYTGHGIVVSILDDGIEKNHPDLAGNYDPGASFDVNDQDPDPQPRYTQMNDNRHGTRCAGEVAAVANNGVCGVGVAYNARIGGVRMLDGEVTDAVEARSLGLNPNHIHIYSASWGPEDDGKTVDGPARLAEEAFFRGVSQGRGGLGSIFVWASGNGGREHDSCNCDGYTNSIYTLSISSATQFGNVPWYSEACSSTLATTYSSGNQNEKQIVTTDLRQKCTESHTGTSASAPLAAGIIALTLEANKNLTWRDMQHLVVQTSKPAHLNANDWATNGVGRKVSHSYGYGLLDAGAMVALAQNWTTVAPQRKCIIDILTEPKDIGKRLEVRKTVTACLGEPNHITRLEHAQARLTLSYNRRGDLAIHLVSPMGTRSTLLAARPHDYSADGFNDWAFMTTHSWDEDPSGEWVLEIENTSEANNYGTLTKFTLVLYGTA
row,IC50 [nM],SMILES
1,< 0.158,"CC(=O)NCC1CCN(Cc2cc(Oc3ccc(N4CCN(CCCS(C)(=O)=O)CC4)nc3)nc(-c3cc(Cl)cc(Cl)c3)c2)CC1 [US11773078, Example 251]"
2,< 0.158,"CNC(=O)NCC1CCN(Cc2cc(Oc3cnc(N4CCN(CCO)CC4)nc3)cc(-c3cc(Cl)cc(Cl)c3)c2)CC1 [US11773078, Example 313]"
3,0.032,"CN1CCCN(c2ccc(Oc3cc(CN4CC[C@@H]5[C@H](CC4)[C@H]5C(=O)O)cc(-c4cc(Cl)cc(Cl)c4)n3)nn2)CC1 [US11773078, Example 362]"
4,0.794,"CN1CCN(c2ncc(Oc3cc(CN4CC[C@@H]5[C@H](CC4)[C@H]5C(=O)O)cc(-c4cc(Cl)cc(Cl)c4)n3)cn2)CC1 [US11773078, Example 321]"
5,0.032,"CNC(=O)OCC1CCN(Cc2cc(Oc3cnc(N4CCN(CCC(=O)O)CC4)nc3)nc(-c3cc(Cl)cc(Cl)c3)c2)CC1 [US11773078, Example 248]"
6,0.063,"CNC(=O)NCC1CCN(Cc2cc(Cc3cnc(N4CCN(CCC(C)S(C)(=O)=O)CC4)nc3)nc(-c3cc(Cl)cc(Cl)c3)c2)CC1 (configuration not stated) [US11773078, Example 220]"
7,0.2,"CNC(=O)NCC1CCN(Cc2cc(Oc3ccc(N4CCN(CCCS(N)(=O)=O)CC4)nc3)nc(-c3cc(Cl)cc(Cl)c3)c2)CC1 [US11773078, Example 260]"
8,0.2,"C[C@H](CC1CCN(Cc2cc(Oc3ccc(N4CCN(C)CC4)nn3)nc(-c3cc(Cl)cc(Cl)c3)c2)CC1)C(=O)O [US11773078, Example 364]"
9,2,"CN1C2CCC1CN(c1ncc(Cc3nc(-c4cc(Cl)cc(Cl)c4)cc(CN4CCC(CC(=O)O)CC4)c3F)cn1)C2 [US11773078, Example 378]"
10,0.2,"CC(=O)NCC1CCN(Cc2cc(Oc3cnc(C4CCN(C(C)CC(=O)O)CC4)nc3)nc(-c3cc(Cl)cc(Cl)c3)c2)CC1 (configuration not stated) [US11773078, Example 282]"
11,2,"CC(=O)NCC1CCN(Cc2cc(Oc3cnc(N4CCN(CCS(=O)(=O)O)CC4)nc3)nc(-c3cc(Cl)cc(Cl)c3)c2)CC1 [US11773078, Example 287]"
12,0.032,"NS(=O)(=O)CCC1CCN(Cc2cc(Oc3ccc(N4CCN(CCC(=O)O)CC4)nc3)nc(-c3cc(Cl)cc(Cl)c3)c2)CC1 [US11773078, Example 277]"

# Second part, the compound before the results:
row,SMILES,IC50 [nM]
1,"CNC(=O)NCC1CCN(Cc2cc(Oc3cnc(N4CCN(C)CC4)nc3)nc(-c3cc(Cl)cc(Cl)c3)c2)CC1 [US11773078, Example 70]",0.032
2,"CC(=O)NCC1CCN(Cc2cc(Cc3cnc(N4CC5CCC(C4)N5C)nc3)nc(-c3cc(Cl)cc(Cl)c3)c2)CC1 [US11773078, Example 71]",0.2
3,"CC(=O)NCC1CCN(Cc2cc(Cc3cnc(N4CCN(C(C)CCC(=O)O)CC4)nc3)nc(-c3cc(Cl)cc(Cl)c3)c2)CC1 (configuration not stated) [US11773078, Example 215]",0.398
4,"CC(=O)NCC1CCN(Cc2cc(Oc3cnc(N4CCN(CCC5(C(=O)O)CC5)CC4)nc3)cc(-c3cc(Cl)cc(Cl)c3)c2)CC1 [US11773078, Example 173]",0.398
5,"CN1CCC(c2ncc(Oc3cc(CN4CCC(CC(=O)O)CC4)cc(-c4cc(Cl)cc(Cl)c4)n3)cn2)CC(F)C1 (configuration not stated) [US11773078, Example 147]",0.631
6,"CNC(=O)NCC1CCN(Cc2cc(Oc3cnc(N4CCN(CCC(C)[S+](C)[O-])CC4)nc3)nc(-c3cc(Cl)cc(Cl)c3)c2)CC1 (configuration not stated) [US11773078, Example 17]",0.032
7,"CC(=O)NCC1CCN(Cc2cc(Oc3ccc(N4C[C@H](C)N(CCS(C)(=O)=O)C[C@@H]4C)nc3)nc(-c3cc(Cl)cc(Cl)c3)c2)CC1 [US11773078, Example 183]",0.025
8,"CC(=O)NCC1CCN(Cc2cc(Cc3ccc(N4CCN(CCC(=O)O)CC4)nn3)nc(-c3cc(Cl)cc(Cl)c3)c2)CC1 [US11773078, Example 169]",0.032
9,"CN1C2CC1CN(c1ncc(Oc3cc(CN4CCC(CC(=O)O)CC4)cc(-c4cc(Cl)cc(Cl)c4)n3)cn1)C2 [US11773078, Example 228]",2.51
10,"CC(=O)NCC1CCN(Cc2cc(Oc3cnc(N4CCN(CCCO)CC4)nc3)cc(-c3cc(Cl)cc(Cl)c3)c2)CC1 [US11773078, Example 113]",< 0.158
11,"O=C(O)CCC1CCN(Cc2cc(Oc3cnc(N4CCN(CCO)CC4)nc3)cc(-c3cc(Cl)cc(Cl)c3)c2)CC1 [US11773078, Example 114]",< 0.158
12,"CC(O)CCN1CCC(c2cnc(Cc3cc(CN4CCC(CC(N)=O)CC4)cc(-c4cc(Cl)cc(Cl)c4)n3)cn2)CC1 (configuration not stated) [US11773078, Example 164]",3.98
13,"CNC(=O)OCC1CCN(Cc2cc(Oc3ccc(N4CCN(C)CC4)nc3)nc(-c3cc(Cl)cc(Cl)c3)c2)CC1 [US11773078, Example 67]",1.58
14,"COC(=O)NC(=O)CCN1CCN(c2ncc(Cc3cc(CN4CCC(CNC(C)=O)CC4)cc(-c4cc(Cl)cc(Cl)c4)c3)cn2)CC1 [US11773078, Example 172]",0.251
15,"CNC(=O)OCC1CCN(Cc2cc(Oc3cnc(N4CCN(C(C)CCC(=O)O)CC4)nc3)nc(-c3cc(Cl)cc(Cl)c3)c2)CC1 (configuration not stated) [US11773078, Example 208]",0.013
16,"COC(=O)NCC1CCN(Cc2cc(Oc3cnc(N4CC5CCC(C4)N5CCC(=O)O)nc3)nc(-c3cc(Cl)cc(Cl)c3)c2)CC1 [US11773078, Example 56]",0.032
17,"CC(C)(O)CCC1CCN(Cc2cc(Oc3ccc(N4CCNCC4)nc3)nc(-c3cc(Cl)cc(Cl)c3)c2)CC1 [US11773078, Example 120]",2
18,"CC(=O)NCC1CCN(Cc2cc(Oc3ccc(N4C[C@H](CN)[C@@H](O)C4)nc3)nc(-c3cc(Cl)cc(Cl)c3)c2)CC1 [US11773078, Example 184]",0.251
19,"O=C(O)CC1CCN(Cc2cc(Oc3ccc(C4C[C@@H]5C[C@H]4CN5)nc3)nc(-c3cc(Cl)cc(Cl)c3)c2)CC1 (some centres not stated) [US11773078, Example 187]",1.26
20,"CC(=O)NCC1CCN(Cc2cc(Oc3cnc(N4CCN(C(=O)CCN)CC4)nc3)cc(-c3cc(Cl)cc(Cl)c3)c2)CC1 [US11773078, Example 170]",0.794
